The record followed here is patent publication US5278167A, “6-pyridyl substituted pyrimidine derivatives” (Brown University Research Foundation, priority 1992, dated 1994).

The structures appear in SMILES notation. Entries after “also recorded” stand apart in the source; their conditions may differ. Like-named read-outs stand apart in the source and are kept apart here. A value given as a limit tells only on which side of the number the result lay.

In series [1] the test system is HCT-8.clone 10 (AZT resistant) cells. Briefly: growth inhibition of HCT-8.clone 10 (AZT resistant) cells. The following applies: for inhibition at 1 µM / inhibition at 10 µM / inhibition at 100 µM: Homo sapiens, 72 hours, read-out: Percent Growth Inhibition; for inhibition at 1 µM: 5-FUra 1 micromolar; for inhibition at 100 µM: 5-FUra 100 micromolar. The format is cell-based, human. The procedure:
(§1) In general, the experiments designed to assess the […] activity of 5-fluoropyrimidines in conjunction with the 6-pyridyl substituted pyrimidine are carried out as follows.
(§2) Screw cap plastic tissue culture tubes are seeded with identical numbers of cultured tumor cells (approximately 2×10^4 cells/tube) in 4.8 mL RPMI-1640 containing 10% Fetal Bovine Serum (FBS) and 2% HEPES (IM buffer solution). The cultures are incubated overnight, on their sides, at 37° C. in a nonhumidified […] incubator.
(§3) The following day, the number of cells in duplicate tubes is determined. The media is decanted, the cells rinsed with Hanks' Balanced Salt Solution (calcium, magnesium and bicarbonate free) and replaced with 4.0 mL of trypsin-EDTA solution. The tubes are incubated at 37° C. for 5 minutes, then shaken to loosen the cells from the tube walls. To each tube is then added 1.0 mL of FBS and medium (50:50) in order to stop the action of the trypsin. Clumps of cells are broken apart by forceful repipetting with a 10 mL glass pipette. The resulting single cell suspension is counted using trypan blue exclusion and the total number of cells per tube recorded as the starting cell number.
(§4) Cells suspended in RPMI/FBS are preincubated with or without BPTU for 30 minutes, followed by addition of a given dose of 5-FUra. Tables 1 and 2 present the cell growth inhibition after 72 hours incubation with varying concentrations of 5-FUra, in the presence or absence of preincubation with 10 micromolar BPTU.
(§5) Similarly, Table 2 reports the effects of 5-FUra used in conjunction with BPTU on ™HCT-8 cells.

Series [2] deals with HCT-8 cells. Put plainly: growth inhibition of HCT-8 cells. The following applies: for inhibition at 1 µM / inhibition at 3 µM / inhibition at 10 µM: Homo sapiens, 72 hours; for inhibition at 1 µM: 5-FUra 1 micromolar; for inhibition at 3 µM: 5-FUra 3 micromolar. In kind it is cell-based, human. The procedure:
as §1, §2, §3, §4, §5

For series [3], the system named is HIV-1. Put plainly: anti-HIV activity: protection of T4 lymphocytes from HIV-1 cytolysis (XTT). In kind it is cell-based. The following applies: HIV-1 in CEM cells. The procedure: (§6) The procedure used to test the 6-pyridyl substituted pyrimidine derivatives activity against HIV is designed to detect agents acting at any stage of the virus reproductive cycle (see Weislow et al. (1989) J. Nat'l. Cancer Inst. 81:577-586, incorporated by reference herein). The assay basically involves the killing of T4 lymphocytes by HIV. Small amounts of HIV are added to cells, and a complete cycle of virus reproduction is necessary to obtain the required cell killing. Agents that interact virions, cells, or virus gene-products to interfere with viral activities will protect cells from cytolysis. All tests are compared with at least one positive (e.g., AZT-treated) control done at the same time under identical conditions.
(§7) 1. The candidate pyrimidine derivative is dissolved in dimethyl sulfoxide then diluted 1:100 in cell culture medium before preparing serial half-log10 dilutions. T4 lymphocytes (CEM cell line) are added and after a brief interval HIV-1 is added, resulting in a 1:200 final dilution of the compound. […]
(§8) 4. Individual wells are analyzed spectrophotomically to quantitate formazan production, and in addition are viewed microscopically for detection of viable cells and confirmation of protective activity. […]
(§9) The anti-HIV activity profile of 1-benzyloxymethyl-5-ethyl-6-(α-pyridylthio) uracil determined by this procedure has been graphically represented in FIG. 1.
(In general: Tetrazolium dyes change colour on reduction, which living cells bring about.)

Series [4] in a line: toxicity to T4 lymphocytes (CEM cell line), uninfected toxicity control (XTT). The format is cell-based. The following applies: human, CEM cells, 6 days, read-out: toxic concentration (IC50). The procedure:
as §6, §7, §8, §9

[5] abbreviates: with BPTU (10 micromolar) preincubated 30 minutes.
[6] abbreviates: with BPTU (10 micromolar) preincubated 30 minutes, read-out: Percent Growth Inhibition.
[7] abbreviates: without BPTU, read-out: Percent Growth Inhibition.

By inhibition is commonly meant the percentage by which the read-out fell short of the control. Regarding `O=c1[nH]cc(F)c(=O)[nH]1` [Example 5-FUra, 5-fluorouracil], the inhibition at 1 µM in series [1] (setting [5]) was determined as 23%; in series [1] (without BPTU), 0%; in series [2] (setting [6]), 33%; in series [2] (setting [7]), 0%. The inhibition at 10 µM in series [1] (5-FUra 10 micromolar, with BPTU (10 micromolar) preincubated 30 minutes, P<0.01) was 74%; in series [1] (5-FUra 10 micromolar, without BPTU) it was 29%; in series [2] (5-FUra 10 micromolar, with BPTU (10 micromolar) preincubated 30 minutes, P<0.01, read-out: Percent Growth Inhibition), 80%; in series [2] (5-FUra 10 micromolar, without BPTU, read-out: Percent Growth Inhibition), 33%. For the same compound, the figures for the inhibition at 100 µM in series [1] (setting [5]) and in series [1] (without BPTU) were over 100% and 56%, respectively. Besides, the inhibition at 3 µM worked out at 55% in series [2] (setting [6]) and 9% in series [2] (setting [7]).
In the case of `CCc1c(Sc2ccccn2)n(COCc2ccccc2)c(=O)[nH]c1=O` [BPTU, 1-benzyloxymethyl-5-ethyl-6-(α-pyridylthio) uracil], in series [3] (8640 min), the “therapeutic index (TI50)” value was over 1.1e+06 mM. Further, in series [3] (Human immunodeficiency virus 1, CCRF-CEM, 144 h, 6 days, XTT, read-out: effective concentration (EC50)), the EC50 is 0.9 nM. Besides, in series [4], the CC50 at 144 h is over 980 nM. Besides, the inhibition at 10 µM in series [1] (5-FUra 0, with BPTU (10 micromolar) alone) turned out to be 0%; in series [2] (5-FUra 0, with BPTU (10 micromolar) alone, read-out: Percent Growth Inhibition), 0%. Moreover, the “growth inhibitory activity alone” value in series [1] (alone at 10 micromolar, HCT-8.clone 10) is “not shown to be growth inhibitory”; in series [2] (alone at 10 micromolar), “not shown to be growth inhibitory”. Also, the “inhibition of cell growth in combination with 5-FUra” value in series [1] (combination with 5-FUra vs 5-FUra alone, HCT-8.clone 10) is given as “more effectively than 5FUra alone”; in series [2] (combination with 5-FUra vs 5-FUra alone), “more effectively than 5-FUra alone; also recorded: more effectively than 5FUra alone”.
